Experimental data: PMC11265914, “Unravelling nicotinic receptor and ligand features underlying neonicotinoid knockdown actions on the malaria vector mosquito Anopheles gambiae” (Open Biology, 2024)

Biological target: T1, Ls-AChBP (Lymnaea stagnalis, UniProt P58154, Q74R)
T1 construct: over-expressed in Pichia pastoris, deglycosylated, purified; homo-pentamer
Experiment: X-ray crystal structure of the complex
Assay type: binding
Details: cocrystallized with 1 mM dinotefuran, PEG4000, 0.2 M sodium citrate pH 5.4, 20 °C; all five orthosteric sites

CNC(=N[N+](=O)[O-])NC[C@@H]1CCOC1 [dinotefuran]
X-ray crystal structure of the complex: Dinotefuran bound to all five orthosteric sites of the protein
